Results as given in patent US8338472B2, “Hexahydrocyclopentyl[F]indazole carboxamides and derivatives thereof as selective glucocorticoid receptor modulators” (Merck Sharp & Dohme Corp., priority 2008, dated 2012).
Like-named read-outs stand apart in the source and are kept apart here.

Assays:
human GR = target: T1, human GR (Homo sapiens, UniProt P04150); assay: Transrepression Assay (GITAR), TNFα-β-lactamase reporter gene in U937 cells; format: cell-based; settings: for GITAR Greater than by GRAMMER % SEP: GITAR Emax minus GRAMMER Emax; for EC50: inflection point, read-out: Transrepression U937 Cells GITAR IP
T1 construct: U937 cells contain an endogenous glucocorticoid receptor (GR); endogenous in cells; host or cells: U937 cells stably transfected with the TNF-alpha promoter/beta-lactamase reporter
T1 sequence (P04150 1-777): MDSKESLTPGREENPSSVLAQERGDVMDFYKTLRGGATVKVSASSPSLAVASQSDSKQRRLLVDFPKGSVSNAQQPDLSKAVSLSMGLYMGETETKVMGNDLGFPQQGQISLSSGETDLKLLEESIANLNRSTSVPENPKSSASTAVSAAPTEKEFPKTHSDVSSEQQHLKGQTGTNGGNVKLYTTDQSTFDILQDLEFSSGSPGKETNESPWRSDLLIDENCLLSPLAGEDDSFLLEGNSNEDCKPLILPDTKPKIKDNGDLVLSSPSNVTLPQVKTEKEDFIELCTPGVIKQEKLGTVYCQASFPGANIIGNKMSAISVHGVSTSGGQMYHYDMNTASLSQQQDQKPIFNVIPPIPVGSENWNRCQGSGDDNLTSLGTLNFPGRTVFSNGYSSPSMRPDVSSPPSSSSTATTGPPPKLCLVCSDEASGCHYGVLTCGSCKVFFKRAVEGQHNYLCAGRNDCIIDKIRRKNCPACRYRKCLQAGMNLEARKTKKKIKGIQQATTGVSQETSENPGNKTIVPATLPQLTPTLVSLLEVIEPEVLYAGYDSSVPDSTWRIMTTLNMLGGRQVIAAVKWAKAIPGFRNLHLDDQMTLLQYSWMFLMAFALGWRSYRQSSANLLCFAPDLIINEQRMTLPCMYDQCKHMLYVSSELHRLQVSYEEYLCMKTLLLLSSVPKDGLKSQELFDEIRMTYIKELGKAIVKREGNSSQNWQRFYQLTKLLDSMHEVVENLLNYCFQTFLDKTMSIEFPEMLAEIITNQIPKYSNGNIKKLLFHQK
Description: Transrepression Assay (GITAR)
This assay assesses the ability of test compounds to control transcription from the TNFα-β-lactamase reporter gene in U937 cells, a human myelomonocytic leukemia cell line that naturally expresses the human GR. The assay measures compound dependent-repression of the TNFa promoter linked to a reporter gene.
The human U937 cells that had been stablely transfected with the TNF-α promoter driving β-lactamase are used for this assay. U937 cells contain an endogenous glucocorticoid receptor (GR). Cells are maintained in RPMI 1640 Growth medium (Gibco Cat#11875-093) containing 25 mM HEPES, 10% FBS, 2 mM L-Glutamine, 1 mM Sodium pyruvate, 25 μg/ml Gentamicin (Gibco Cat#15710-064), 1:1000 2-Mercaptoethanol (Gibco Cat#21985-023) and 0.8 mg/ml G418 (Gibco Cat#10131-027). The density of the cells in the flask needs to be about 1×10^6−3×10^6/ml at the time of harvest. Usually, the cells are split to 1.2˜1.4×10^5/ml (1:10) 3 days prior to the assay. 50,000 cells/well are plated in 96 well black-walled plates the day of assay. Test compounds are added 10 pt/well, and cells are incubated at 37° C. for 30-45 min. For assaying compounds, first dilute 1:10 in DMSO to make 1 mM, then further dilute 1:100 in medium to make 10× stock prior to adding to the cells. Add 50 ng/ml PMA (Sigma, cat# P8139) 10 μL/well to a final concentration 5 ng/ml, and 1 μg/ml LPS (Sigma, cat# L4130) 10 μL/well to a final concentration 100 ng/ml. Incubate cells at 37° C. overnight for ˜18 hr. PMA is stored frozen as 100 μg/ml stock in DMSO. Dilute 1:10 in DMSO for a working stock of 10 μg/ml and store at −20C. For assaying, dilute the […] working stock 1:200 in medium to make a 10× solution (50 ng/ml). Store frozen LPS at 1 mg/ml in PBS, dilute 1:1000 in medium to make 10× (1 μg/ml) for the assay. Add 6× loading buffer (CCF2−AM) 20 μL/well, and incubate at room temperature for 70-90 min. […] The activity repressed by 100 nM dexamethasone alone is set as 100% activity.

[1] = target: T2, glucocorticoid receptor (GR) (Homo sapiens, UniProt P04150); assay: Ligand binding assay (GR BIND), 3H-dexamethasone displacement in MDA-MB-453 cell lysate; settings: GR BIND Ki
T2 sequence (P04150 1-777): T1 sequence (P04150 1-777)

Glucocorticoid Receptor = target: T3, Glucocorticoid Receptor (Homo sapiens, UniProt P04150); assay: Trans-Activation Modulation of Glucocorticoid Receptor (GRAMMER), MMTV-LUC reporter gene in A549 cells; format: cell-based; settings: Table 1; for Emax: A549, A549 cells, read-out: Transactivation A549 Cells GRAMMER Emax; for EC50: inflection point, read-out: Transactivation A549 Cells GRAMMER IP
T3 construct: These cells express large amount of the GR and are very responsive to GC treatment; endogenous in cells; host or cells: A549 cells transiently transfected with the MMTV-LUC reporter
T3 sequence (P04150 1-777): T1 sequence (P04150 1-777)
Description: Trans-Activation Modulation of Glucocorticoid Receptor (GRAMMER)
This assay assesses the ability of test compounds to control transcription from the MMTV-LUC reporter gene in lung adenocarcinoma A549 cells or MDA-MB-453 cells, a human breast cancer cell line that naturally expresses the human GR. The assay measures induction of a modified MMTV LTR/promoter linked to the LUC reporter gene.
The routine transient assay consists of plating 7,000-25,000 cells/well of a white, clear-bottom 96-well plate. Alternatively, 384-well plates can be used at a cell concentration of 10,000/well. The media that the cells are plated in is “exponential growth medium” which consists of phenol red-free RPMI1640 containing 10% FBS, 4 mM L-glutamine, 20 mM HEPES, 10 ug/mL human insulin, and 20 ug/mL gentamicin. Incubator conditions are 37° C. and 5% CO2. The transfection is done in batch mode. The cells are trypsinized and counted to the right cell number in the proper amount of fresh media. It is then gently mixed with the FuGene6/DNA mix and plated onto the 96 or 384-well plate, all the wells receive 100 uL or 40 uL, respectively, of medium+lipid/DNA complex then incubated 37° C. overnight. The transfection cocktail consists of serum-free OptiMEM, FuGene6 reagent and DNA. The manufacturer's (Roche Biochemical) protocol for cocktail setup is as follows: The lipid to DNA ratio is approximately 2.5:1 and the incubation time is 20 min at room temperature. Sixteen to 24 hours after transfection, the cells are treated with dexamethasone to a final concentration of 10 nM as well as the compound of interest, such that final DMSO (vehicle) concentration is equal to or less than 1%. Each plate also contains samples that are treated with 10 nM dexamethasone alone, which is used as the 100% activity control. The cells are exposed to the compounds for 24 hours. After 24 hours, the cells are lysed by a Promega cell culture lysis buffer for approximately 30 min and then the luciferase activity in the extracts is assayed in the 96-well format luminometer. In 384-well format, Steady-Glo (Promega) or Steady-Lite (PerkinElmer) can be used by adding an equal volume of reagent to the media present in each well. Activity induced by 10 nM dexamethasone alone is set at 100% activity. Antagonist activity is calculated by determining the decrease in dexamethasone-induced activity in response to compound treatment relative to samples that were treated with dexamethasone alone. […] This transactivation assay can be performed in an agonist and antagonist mode to identify these different activities.
Activity of test compounds is calculated as the Emax relative to the activity obtained with 300 nM dexamethasone. Activity of test compounds is calculated as the Emax relative to the activity obtained with 300 nM DEX. […] The action of compounds is also tested in an antagonist mode (Anti-GRAMMER) in which the cells are treated with medium containing an agonist such as 10 nM DEX and the ability to agents to inhibit the activation by an agonist is measured.

[2] = U-937, U937 cells, activity repressed by 100 nM dexamethasone = 100%, Table 1, read-out: Transrepression U937 Cells GITAR Emax
[3] = U-937, text statement, 100 nM dexamethasone = 100%, read-out: maximal activity in the transrepression assay (GITAR)
[4] = Emax relative to 300 nM dexamethasone

SMILES	GITAR Greater than by GRAMMER % SEP (human GR; Table 1) [%]	Emax (human GR; [2]) [%]	Emax (human GR; [3]) [%]	EC50 (human GR; U937 cells, Table 1) [nM]	Ki ([1]; Table 1) [nM]	Emax (Glucocorticoid Receptor; [4]) [%]	EC50 (Glucocorticoid Receptor; A549 cells) [nM]	Transrepression U937 Cells GITAR Emax (human GR; U937 cells, activity repressed by 100 nM dexamethasone = 100%, Table 1) [%]	Transactivation A549 Cells GRAMMER Emax (Glucocorticoid Receptor; A549 cells, Emax relative to 300 nM dexamethasone) [%]	Ki ([1]; compounds in the art (WO03/086294)) [nM]
CC(C)CN(CC(O)C(F)(F)F)C(=O)[C@H]1CCC2=Cc3c(cnn3-c3ccc(F)cc3)C[C@@]21C (stereo partly drawn) [Compound 58, (4αR,5S)-1-(4-fluorophenyl)-N-isobutyl-4α-methyl-N-(3,3,3-trifluoro-2-hydroxypropyl)-1,4,4α,5,6,7-hexahydrocyclopenta[f]indazole-5-carboxamide]	15.3	86.8	> 5	122	7.3	71.5	227			
C[C@]12Cc3cnn(-c4ccc(F)cc4)c3C=C1CC[C@@H]2C(=O)Nc1ccccc1 [Compound 6, (4αR,5S)-1-(4-fluorophenyl)-4α-methyl-N-phenyl-1,4,4α,5,6,7-hexahydrocyclopenta[f]indazole-5-carboxamide]	11.5	12.8	> 5	0.9	19.4	1.3	133			
C[C@]12Cc3cnn(-c4ccc(F)cc4)c3C=C1CC[C@@H]2C(=O)N1CCCCC1CCc1ccccc1 (stereo partly drawn) [Compound 18, (4αR,5S)-1-(4-fluorophenyl)-4α-methyl-5-{[2-(2-phenylethyl)piperidin-1-yl]carbonyl}-1,4,4α,5,6,7-hexahydrocyclopenta[f]indazole]	6.3	10.1	> 5			3.8				
C[C@]12Cc3cnn(-c4ccc(F)cc4)c3C=C1CC[C@@H]2C(=O)N(CCO)CC(O)C(F)(F)F (stereo partly drawn) [Compound 60, (4αR,5S)-1-(4-fluorophenyl)-N-(2-hydroxyethyl)-4α-methyl-N-(3,3,3-trifluoro-2-hydroxypropyl)-1,4,4α,5,6,7-hexahydrocyclopenta[f]indazole-5-carboxamide]	29.8	85.4	> 5	87.1	12.6	55.6	46.3			

Other lines, results leading:

GITAR Greater than by GRAMMER % SEP (human GR; Table 1) [%]	Emax (human GR; [2]) [%]	Emax (human GR; [3]) [%]	EC50 (human GR; U937 cells, Table 1) [nM]	Ki ([1]; Table 1) [nM]	Emax (Glucocorticoid Receptor; [4]) [%]	EC50 (Glucocorticoid Receptor; A549 cells) [nM]	Transrepression U937 Cells GITAR Emax (human GR; U937 cells, activity repressed by 100 nM dexamethasone = 100%, Table 1) [%]	Transactivation A549 Cells GRAMMER Emax (Glucocorticoid Receptor; A549 cells, Emax relative to 300 nM dexamethasone) [%]	Ki ([1]; compounds in the art (WO03/086294)) [nM]	SMILES
25.7		> 5	191	0.8		188	69.4	43.7		C[C@]12Cc3cnn(-c4ccc(F)cc4)c3C=C1CC[C@@H]2C(=O)N(CCc1ccccc1F)CC(O)C(F)(F)F (stereo partly drawn) [Compound 84, (4αR,5S)-1-(4-fluorophenyl)-N-[2(2-fluorophenyl)ethyl]-4α-methyl-N-(3,3,3-trifluoro-2-hydroxypropyl)-1,4,4α,5,6,7-hexahydrocyclopenta[f]indazole-5-carboxamide]
5.9	73.9	> 5	234	2.2	68	371				CCCN(CCC(F)(F)F)C(=O)[C@H]1CCC2=Cc3c(cnn3-c3ccc(F)cc3)C[C@@]21C [Compound 88, (4αR,5S)-1-(4-fluorophenyl)-4α-methyl-N-propyl-N-(3,3,3-trifluoropropyl)-1,4,4α,5,6,7-hexahydrocyclopenta[f]indazole-5-carboxamide]
8.4	81.2	> 5	424	4.7	72.8	431				CCCN(C[C@H](C)O)C(=O)[C@H]1CCC2=Cc3c(cnn3-c3ccc(F)cc3)C[C@@]21C [Compound 65, (4αR,5S)-1-4-(4-fluorophenyl)-N-[(2S)-2-hydroxypropyl]-4α-methyl-N-propyl-1,4,4α,5,6,7-hexahydrocyclopenta[f]indazole-5-carboxamide]
24.0	95.6	> 5	85	2.6	71.7	151				CCN(CC(O)C(F)(F)F)C(=O)[C@H]1CCC2=Cc3c(cnn3-c3ccc(F)cc3)C[C@@]21C (stereo partly drawn) [Compound 71, (4αR,5S)-N-ethyl-1-(4-fluorophenyl)-4α-methyl-N-(3,3,3-trifluoro-2-hydroxypropyl)-1,4,4α,5,6,7-hexahydrocyclopenta[f]indazole-5-carboxamide]
									2420	C[C@]12Cc3cnn(-c4ccc(F)cc4)c3C=C1CC[C@@H]2C(=O)Nc1ccccc1 (single isomer, unassigned) [reference compound]
